Assay [1] is described as follows: Inhibition of SARS CoV 3C-like protease expressed in Escherichia coli GJ1158 using 2-aminobenzoyl-SVTLQSG-Tyr(NO2)-R as substrate by FRET assay. The arrangement: species or system Severe acute respiratory syndrome-related coronavirus.
Assay [2] can be described thus: Inhibition of SARS CoV His-tagged 3C-like protease expressed in Escherichia coli BL21 using Dabcyl-KTSAVLQ-SGFRKME-Edans as substrate by Lineweaver-Burk analysis. Further details: species or system Severe acute respiratory syndrome-related coronavirus.
The nature of assay [3]: Inhibition of SARS CoV 3C-like protease. The arrangement: species or system Severe acute respiratory syndrome-related coronavirus.
Assay [4] is described as follows: Inhibition of SARS CoV 3C-like protease using Abz-SVTLQSG-Tyr(NO2)R as substrate by fluorescence method. Further details: species or system Severe acute respiratory syndrome-related coronavirus.
Assay [5] is described as follows: Inhibition of SARS CoV HKU3984 His-tagged 3C-like protease using H2N-TSAVLQSGFRKW-COOH as substrate by HPLC method. The arrangement: species or system Severe acute respiratory syndrome-related coronavirus.
Assay [6] in a line: Inhibition of MERS CoV 3C-like protease using Dabcyl-KTSAVLQSGFRKME-Edans as substrate by fluorometric assay. Further details: species or system Middle East respiratory syndrome-related coronavirus.
Assay [7] is described as follows: Inhibition of SARS CoV 3C-like protease using Dabcyl-KTSAVLQSGFRKME-Edans as substrate by fluorometric assay. Further details: species or system Severe acute respiratory syndrome-related coronavirus.
Assay [8] relates to Severe acute respiratory syndrome-related coronavirus. Description: Irreversible inhibition of SARS CoV 3C-like protease assessed as ratio of Kinact to Ki using Abz-Ser-Val-Thr-Leu-Gln-Ser-Gly-(NO2)Tyr-Arg as substrate by fluorescence method.
Assay [9] in a line: Inhibition of SARS CoV papain-like protease using Arg-Leu-Arg-Gly-Gly-AMC as substrate by fluorescence method. Further details: species or system Severe acute respiratory syndrome-related coronavirus.
A short description of assay [10]: Inhibition of SARS CoV 3C-like protease using 12-mer fluorogenic peptide Dabcyl-KNSTLQSGLRKE-Edans as substrate incubated for 60 mins by fluorometric assay. Further details: species or system Severe acute respiratory syndrome-related coronavirus.
Assay [11] can be described thus: Competitive inhibition of SARS CoV 3C-like protease using fluorogenic substrate by Lineweaver-Burk plot analysis. Further details: species or system Severe acute respiratory syndrome-related coronavirus.

In [1], `Cc1ccc2nc(-c3ccc(N)cc3)sc2c1S(=O)(=O)O` came in with an IC50 of 4.3 µM.
In turn, `CC(C)[C@H](NC(=O)[C@H](C)NC(=O)OCc1ccccc1)C(=O)C[C@@H](Cc1ccccc1)[C@@H](O)[C@H](O)[C@H](Cc1ccccc1)NC(=O)[C@@H](NC(=O)[C@H](C)NC(=O)OCc1ccccc1)C(C)C` yielded an inhibition constant Ki in assay [2] of 600 nM.
In [3], `O=C(/C=C/c1ccccc1)N[C@@H](CC1CCCCC1)C(=O)N[C@@H](C[C@@H]1CCNC1=O)C(=O)C(=O)NCc1ccccc1` gave an IC50 of 710 nM.
The compound `CC(=O)N[C@H](C(=O)N[C@H](C(=O)N[C@@H](CC(C)C)C(=O)N[C@@H](C[C@@H]1CCNC1=O)C(=O)CN1Cc2cccc([N+](=O)[O-])c2C(=O)N1)[C@@H](C)OCc1ccccc1)C(C)C` had an IC50 in assay [4] of 600 nM.
Turning to `CC1=C(C(=O)OCCc2ccccc2)C(c2ccccc2[N+](=O)[O-])C2=C(CCCC2=O)N1` (configuration not stated), the IC50 in [5] was found to be 2500 nM. In other words, the single-digit micromolar range.
As to `O=C[C@@H](C[C@H]1CCNC1=O)NC(=O)[C@@H](Cc1ccccc1)NC(=O)/C=C/c1ccc(Cl)cc1F`, the 50% inhibitory concentration (IC50) is 4.7 µM in [6] and 200 nM in [7].
For the compound `CCOC(=O)C1OC1C(=O)N(CCC(N)=O)NC(=O)[C@H](Cc1ccccc1)NC(=O)[C@H](CC(C)C)NC(=O)OCc1ccccc1` (some centres not stated), the Ratio in assay [8] was 1900 M⁻¹ s⁻¹.
With `O=C(/C=C/CCc1ccc(O)c(O)c1)CCc1ccc(O)c(O)c1` [DEHYDROHIRSUTANONOL], the half-maximal inhibitory concentration (IC50) in assay [9] came to 4.1 µM; in assay [10] it was 36.2 µM.
As for `O=C(/C=C/c1ccccc1)N[C@@H](Cc1ccccc1)C(=O)N[C@@H](C[C@@H]1CCNC1=O)C(=O)C(=O)NCc1ccccc1`, the IC50 in [3] amounted to 1950 nM.
As to `CC(C)[C@H](NC(=O)[C@H](C)NC(=O)OCc1ccccc1)C(=O)C[C@@H](Cc1c[nH]c2ccccc12)[C@@H](O)[C@H](O)[C@H](Cc1c[nH]c2ccccc12)NC(=O)[C@@H](NC(=O)[C@H](C)NC(=O)OCc1ccccc1)C(C)C`, the Ki in [11] was 73 nM.

The IC50 is the concentration needed to halve the response being measured. Read a high IC50 as weaker potency in that assay. A word on the Ki: it is a dissociation constant, usually derived from enzyme kinetics or from competition with a known ligand.

(Values after ChEMBL document CHEMBL4732232, “Protease targeted COVID-19 drug discovery: What we have learned from the past SARS-CoV inhibitors?” (Eur J Med Chem, 2021).)
